Where two headings read alike, the source gives them in different places.
What was measured:
[1] = system: SREBP2; experiment: SREBP2 cleavage in HepG2 cells (Western blot); format: cell-based; conditions: 20 μM, 1 day, DMEM without FBS
Method: (§1) Cancer cells such as HepG2 cells depend on SREBP activation and de novo lipogenesis to survive, particularly in low serum or serum-free conditions. Using this model, compounds were screened over 24 hours for the ability to block cleavage of SREBP to its active form and over 72 hours for an effect on cell viability under serum-free conditions.
Average SREBP2 cleavage in HepG2 cells was measured in the presence of compounds disclosed in Table 1. HepG2 cells were seeded at 500,000 cells per well in 6-well plates in DMEM supplemented with 10% FBS. After 2 days, cells were treated with compounds (20 μM) for 1 day in DMEM without FBS. Western blots were normalized with respect to actin.

[2] = system: HepG2 cells; experiment: HepG2 cell viability under serum-free conditions (MTS); format: cell-based; conditions: Homo sapiens, HepG2, 72 h, 3 days, DMEM without FBS, read-out: Average Viability (% Inhibition, n = 3)
Method: as §1
For viability measurements, HepG2 cells were seeded at 5,000 cells per well in 96-well plates in DMEM supplemented with 10% FBS. After 1 day in culture, cells were treated with compounds (20 μM & 5 μM) for 3 days in DMEM without FBS. Viability was measured by MTS […]. […]

[3] = PK parameters for representative compounds (i.v. and p.o.), Table 4; conditions: in vivo; for half-life: read-out: Terminal t1/2 (converted)

Row | Structure (SMILES) | cytotoxicity at 20 µM [2] [%] | cytotoxicity at 5 µM [2] [%] | other results
1 | CC(C)(C)c1cc(-c2nc(-c3ccc(NS(=O)(=O)C(F)(F)F)cc3Cl)cs2)ccn1 [Compound 5, N-(4-(2-(2-tert-butylpyridin-4-yl)thiazol-4-yl)-3-chlorophenyl)-1,1,1-trifluoromethanesulfonamide] | 99.2 | – | Average SREBP2 cleavage (% Inhibition, n = 3) [1]: 81.7%; AUC(0-t) ([3]; iv, i.v. @ 2 mg/kg): 41 µM·h; Cmax ([3]; iv, i.v. @ 2 mg/kg): 10.2 µM; Vd ([3]; iv, i.v. @ 2 mg/kg): 0.345 L/kg; clearance ([3]; iv, i.v. @ 2 mg/kg): 1.58 mL/min/kg; half-life ([3]; iv, i.v. @ 2 mg/kg): 2.51 h; AUC(0-t) ([3]; po, p.o. @ 10 mg/kg): 302 µM·h; Cmax ([3]; po, p.o. @ 10 mg/kg): 20.3 µM; Tmax ([3]; po, p.o. @ 10 mg/kg): 1 h; bioavailability ([3]; po, p.o. @ 10 mg/kg vs i.v. @ 2 mg/kg): 149%; half-life ([3]; po, p.o. @ 10 mg/kg): 6.96 h
2 | Cc1cnccc1-c1nc(-c2ccc(NS(=O)(=O)C(F)(F)F)cc2Cl)cs1 [Compound 86, N-{3-chloro-4-[2-(3-methylpyridin-4-yl)-1,3-thiazol-4-yl]phenyl}-1,1,1-trifluoromethanesulfonamide] | – | 27 | –
3 | Cc1ccc(S(=O)(=O)Nc2cccc(-c3nc(-c4ccc(NS(=O)(=O)C(F)(F)F)cc4Cl)cs3)c2)cc1 [Compound 78, N-{3-[4-(2-chloro-4-trifluoromethanesulfonamidophenyl)-1,3-thiazol-2-yl]phenyl}-4-methylbenzene-1-sulfonamide] | – | 87 | –
4 | O=S(=O)(Nc1ccc(-c2csc(-c3ccnc4[nH]ccc34)n2)c(Cl)c1)C(F)(F)F [Compound 87, N-[3-chloro-4-(2-{1H-pyrrolo[2,3-b]pyridin-4-yl}-1,3-thiazol-4-yl)phenyl]-1,1,1-trifluoromethanesulfonamide] | – | 9 | –
5 | COc1cc(-c2csc(-c3ccnc(C(C)(C)C)c3)n2)ccc1NS(=O)(=O)C(F)(F)F [Compound 59, N-(4-(2-(2-tert-butylpyridin-4-yl)thiazol-4-yl)-2-methoxyphenyl)-1,1,1-trifluoromethanesulfonamide] | 99.8 | – | –
6 | COc1ccc(-c2nc(-c3ccc(NS(=O)(=O)C(F)(F)F)cc3Cl)cs2)cc1OC [Compound 79, N-{3-chloro-4-[2-(3,4-dimethoxyphenyl)-1,3-thiazol-4-yl]phenyl}-1,1,1-trifluoromethanesulfonamide] | – | 74 | –
7 | O=S(=O)(Nc1ccc(-c2csc(-c3cccc(N4CCCCC4)c3)n2)c(Cl)c1)C(F)(F)F [Compound 88, N-(3-chloro-4-{2-[3-(piperidin-1-yl)phenyl]-1,3-thiazol-4-yl}phenyl)-1,1,1-trifluoromethanesulfonamide] | – | 19 | –
8 | O=S(=O)(Nc1ccc(-c2csc(-c3ccc4c(c3)CCO4)n2)c(Cl)c1)C(F)(F)F [Compound 82, N-{3-chloro-4-[2-(2,3-dihydro-1-benzofuran-5-yl)-1,3-thiazol-4-yl]phenyl}-1,1,1-trifluoromethanesulfonamide] | – | 82 | –
9 | O=S(=O)(Nc1ccc(-c2csc(-c3ccc4cc[nH]c4c3)n2)c(Cl)c1)C(F)(F)F [Compound 72, N-{3-chloro-4-[2-(1H-indol-6-yl)-1,3-thiazol-4-yl]phenyl}-1,1,1-trifluoromethanesulfonamide] | – | 94 | –
10 | O=S(=O)(Nc1ccc(-c2csc(-c3ccc(C(F)(F)F)c(OCc4ccccc4)c3)n2)c(Cl)c1)C(F)(F)F [Compound 73, N-(4-{2-[3-(benzyloxy)-4-(trifluoromethyl)phenyl]-1,3-thiazol-4-yl}-3-chlorophenyl)-1,1,1-trifluoromethanesulfonamide] | – | 99 | –
11 | O=S(=O)(Nc1ccc(-c2csc(-c3ccc(F)cc3C(F)(F)F)n2)c(Cl)c1)C(F)(F)F [Compound 81, N-[3-chloro-4-[2-[4-fluoro-2-(trifluoromethyl)phenyl]thiazol-4-yl]phenyl]-1,1,1-trifluoro-methanesulfonamide] | – | 88 | –
12 | O=S(=O)(Nc1ccc(-c2csc(-c3cccc(CO)c3)n2)c(Cl)c1)C(F)(F)F [Compound 83, N-(3-chloro-4-{2-[3-(hydroxymethyl)phenyl]-1,3-thiazol-4-yl}phenyl)-1,1,1-trifluoromethanesulfonamide] | – | 0 | –
13 | CCCc1cc(-c2nc(-c3ccc(NS(=O)(=O)C(F)(F)F)c(OC)c3)cs2)ccn1 [Compound 58, 1,1,1-trifluoro-N-{2-methoxy-4-[2-(2-propylpyridin-4-yl)-1,3-thiazol-4-yl]phenyl}methanesulfonamide] | 67.9 | – | –
14 | COc1cc(-c2csc(-c3ccnc(CC(C)C)c3)n2)ccc1NS(=O)(=O)C(F)(F)F [Compound 57, 1,1,1-trifluoro-N-(2-methoxy-4-{2-[2-(2-methylpropyl)pyridin-4-yl]-1,3-thiazol-4-yl}phenyl) methanesulfonamide] | 56.4 | – | –
15 | CCCc1cc(-c2nc(-c3ccc(NS(=O)(=O)C(F)(F)F)cc3)cs2)ccn1 [Compound 1, 1,1,1-trifluoro-N-(4-(2-(2-propylpyridin-4-yl)thiazol-4-yl)phenyl)methanesulfonamide] | 92.1 | – | –
16 | Nc1cc(-c2nc(-c3ccc(NS(=O)(=O)C(F)(F)F)cc3Cl)cs2)ccn1 [Compound 61, N-{4-[2-(2-aminopyridin-4-yl)-1,3-thiazol-4-yl]-3-chlorophenyl}-1,1,1-trifluoromethanesulfonamide] | 43 | – | –
17 | CN1CCN(c2cc(-c3nc(-c4ccc(NS(=O)(=O)C(F)(F)F)cc4Cl)cs3)ccn2)CC1 [Compound 76, N-(3-chloro-4-{2-[2-(4-methylpiperazin-1-yl)pyridin-4-yl]-1,3-thiazol-4-yl}phenyl)-1,1,1-trifluoromethanesulfonamide] | – | 3 | –
18 | O=S(=O)(Nc1ccc(-c2csc(-c3cccc4ccccc34)n2)c(Cl)c1)C(F)(F)F [Compound 71, N-{3-chloro-4-[2-(naphthalen-1-yl)-1,3-thiazol-4-yl]phenyl}-1,1,1-trifluoromethanesulfonamide] | – | 97 | –
19 | O=S(=O)(Nc1ccc(-c2csc(-c3c[nH]c4ccccc34)n2)c(Cl)c1)C(F)(F)F [Compound 93, N-{3-chloro-4-[2-(1H-indol-3-yl)-1,3-thiazol-4-yl]phenyl}-1,1,1-trifluoromethanesulfonamide] | – | 82 | –
20 | CS(=O)(=O)Nc1cc(-c2nc(-c3ccc(NS(=O)(=O)C(F)(F)F)cc3Cl)cs2)ccn1 [Compound 62, N-{3-chloro-4-[2-(2-methanesulfonamidopyridin-4-yl)-1,3-thiazol-4-yl]phenyl}-1,1,1-trifluoromethanesulfonamide] | 0 | – | –
21 | CCCc1cc(-c2nc(-c3cccc(NS(=O)(=O)C(F)(F)F)c3)cs2)ccn1 [Compound 2, 1,1,1-trifluoro-N-(3-(2-(2-propylpyridin-4-yl)thiazol-4-yl)phenyl)methanesulfonamide] | 80.5 | – | –
22 | O=S(=O)(Nc1ccc(-c2csc(-c3csc4ccccc34)n2)c(Cl)c1)C(F)(F)F [Compound 90, N-{4-[2-(1-benzothiophen-3-yl)-1,3-thiazol-4-yl]-3-chlorophenyl}-1,1,1-trifluoromethanesulfonamide] | – | 99 | –
23 | O=S(=O)(Nc1ccc(-c2csc(-c3ccnc(Cl)c3)n2)c(Cl)c1)C(F)(F)F [Compound 95, N-(3-chloro-4-(2-(2-chloropyridin-4-yl)thiazol-4-yl)phenyl)-1,1,1-trifluoromethanesulfonamide] | – | 86 | –
24 | O=S(=O)(Nc1ccc(-c2csc(-c3cncc4ccccc34)n2)c(Cl)c1)C(F)(F)F [Compound 75, N-{3-chloro-4-[2-(isoquinolin-4-yl)-1,3-thiazol-4-yl]phenyl}-1,1,1-trifluoromethanesulfonamide] | – | 88 | –
25 | O=S(=O)(Nc1ccc(-c2csc(-c3ccnc(N4CCCCC4)c3)n2)c(Cl)c1)C(F)(F)F [Compound 85, N-(3-chloro-4-{2-[2-(piperidin-1-yl)pyridin-4-yl]-1,3-thiazol-4-yl}phenyl)-1,1,1-trifluoromethanesulfonamide] | – | 93 | –

From patent publication US10183015B2, “Heterocyclic compounds and methods of use” (Medivation Technologies LLC, priority 2015, dated 2019)
